Measurements from ChEMBL document CHEMBL1136254, “Synthesis and SAR of 8-arylquinolines as potent corticotropin-releasing factor1 (CRF1) receptor antagonists” (Bioorg Med Chem Lett, 2003).
Values after ≈ are worked out from the molar mass of the structure shown.

How the values were obtained:
[1] = molecular target: T1, Corticotropin-releasing factor receptor 1 (Homo sapiens, UniProt P34998); assay: Binding affinity towards cloned human Corticotropin releasing factor receptor 1 expressed in CHO cells using [125I]o-CRF as the radioligand; assay type: cell-based
T1 sequence (P34998 whole entry): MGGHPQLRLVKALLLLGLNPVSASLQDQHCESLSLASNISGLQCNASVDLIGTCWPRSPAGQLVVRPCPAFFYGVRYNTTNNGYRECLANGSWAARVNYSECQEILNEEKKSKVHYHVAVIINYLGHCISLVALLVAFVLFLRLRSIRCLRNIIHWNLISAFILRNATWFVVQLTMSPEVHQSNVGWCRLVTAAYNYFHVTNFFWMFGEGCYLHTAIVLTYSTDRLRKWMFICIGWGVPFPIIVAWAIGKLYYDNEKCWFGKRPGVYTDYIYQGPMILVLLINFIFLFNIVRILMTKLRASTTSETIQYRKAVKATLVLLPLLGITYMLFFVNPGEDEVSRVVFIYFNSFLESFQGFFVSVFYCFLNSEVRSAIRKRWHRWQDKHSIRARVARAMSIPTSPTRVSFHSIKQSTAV

[2] = molecular target: T1, Corticotropin-releasing factor receptor 1; assay: Inhibition of Corticotropin releasing factor receptor 1-stimulated cAMP production; assay type: functional
[3] = pKa value was determined; assay type: physicochemical
[4] = Solubility at pH 4; assay type: physicochemical; details: buffer

| Ki [1] | IC50 [2] | pKa [3] | solubility [4] | Structure (SMILES) |
| --- | --- | --- | --- | --- |
| 16 nM |  |  |  | CSc1cc(C)nc2c(-c3ccc(Cl)cc3Cl)cccc12 |
| 0.5 nM | 16 nM |  |  | CCCN(CC1CC1)c1cc(C)nc2c(-c3ccc(Cl)cc3Cl)cccc12 |
| 52 nM |  |  |  | CCCN(CCC)c1cc(C)nc2c(-c3ccc(OC)cc3)cccc12 |
| 5.7 nM | 14 nM |  |  | COCCN(CCOC)c1cc(C)nc2c(-c3ccc(Cl)cc3Cl)cccc12 |
| 6.5 nM |  |  |  | COCCN(CCOC)c1cc(C)nc2c(-c3c(C)cc(C)cc3C)cccc12 |
| 5.7 nM | 51 nM |  |  | CCCCN(CC)c1cc(C)nc2c(-c3ccc(Cl)cc3Cl)cccc12 |
| 2.5 nM |  |  |  | CCCN(CC1CC1)c1cc(C)nc2c(-c3ccc(Cl)cc3Cl)c(C)ccc12 |
| 8.9 nM |  |  |  | CCCN(CCC)c1cc(C)nc2c(-c3ccc(Cl)cc3)cccc12 |
| 2.2 nM |  |  |  | CCCN(CC1CC1)c1cc(C)nc2c(-c3c(C)cc(C)cc3C)cccc12 |
|  |  | 7.1 | 10000 µg/mL (≈ 26.3 mM) | CCCN(CCC)c1cc(C)nc2c(-c3cnc(N(C)C)cc3C)c(C)nn12 |
